Reference: US9713615B2, “Tetrahydroisoquinolin-2-yl-(quinazolin-4-yl)methanone compounds” (Rexahn Pharmaceuticals, Inc., priority 2013, dated 2017)

Experiments:
PANC-1 (pancreas) = experiment: SRB growth inhibition assay, PANC-1; assay type: cell-based, Human; conditions: Homo sapiens, PANC-1, 96 hours incubation, read-out: Inhibition of cell growth (IC50, μM) Panc-1
From the text: (§1) Cancer cells used in this study to determine the effect of tetrahydroisoquinolin-2-yl-(quinazolin-4-yl)methanone compounds were obtained from the following sources: Human OVCAR-3 (ovary), SK-MEL-28 (melanoma), MDA-MB-231 (breast), HeLa (cervix), PC3 (prostate), HepG2 (liver), A549 (lung), Caki-1 (kidney), HCT116 (colon) and PANC-1 (pancreas) from the American Type Culture Collection (ATCC) (Manassas, Va.); U251 (brain) from Riken (Japan); MKN-45 (stomach) from DSMZ (Germany). All cell lines except MDA-MB-231, HCT116, Caki-1 and PANC-1 were grown in RPMI1640 medium (Invitrogen, Carlsbad, Calif.) supplemented with 10% fetal bovine serum (“FBS”), 1 mM sodium pyruvate, 10 mM HEPES and 100 U/ml penicillin and 100 μg/ml streptomycin (“P/S”). MDA-MB-231, HCT116, Caki-1 and PANC-1 cells were maintained in Dulbecco's modified Eagle's medium (“DMEM”, Invitrogen) supplemented with 10% FBS, P/S, 10 mM HEPES and 2 mM L-glutamine. All cells were incubated at 37° C. under humidified 5% CO2.
(§2) The growth inhibition of the tetrahydroisoquinolin-2-yl-(quinazolin-4-yl)methanone compounds against a variety of human tumor cells was evaluated to study the relative importance of particular substituent groups on the compounds. The tetrahydroisoquinolin-2-yl-(quinazolin-4-yl)methanone compounds, prepared as described above, were tested with DMSO as a control.
(§3) The growth inhibition assay of representative tetrahydroisoquinolin-2-yl-(quinazolin-4-yl)methanone derivatives against human tumor cell lines was performed using the Sulforhodamine B (“SRB”) method (Skehan et al., J. National Cancer Institute, 82: 1107-1112 (1990)). Briefly, exponentially growing tumor cells were seeded into a 96-well plate at a density of 2-3×10^3 cells/well and treated with tetrahydroisoquinolin-2-yl-(quinazolin-4-yl)methanone compounds the next day. Triplicate wells were used for each treatment. The cells were incubated with the various compounds for 96 hours at 37° C. in a humidified 5% CO2 atmosphere. After 96-hour incubation, cells were fixed with 10% trichloroacetic acid (“TCA”), incubated for 1 hour at 4° C., and washed 3 times with tap water. Subsequently, cells were stained with 0.4% sulforhodamine B in 1% acetic acid for 30 minutes, washed 4 times with 1% acetic acid, and air-dried again After 5 minutes agitation in 10 mM Tris solution, the absorbance of each well was measured at 530 nm using Benchmark Plus Microplate reader (Bio-Rad Laboratories, Hercules, Calif.).
(§4) To translate the OD530 values into the number of live cells in each well, the OD530 values were compared to those on standard OD530-versus-cell number curves generated for each cell line. The percent survival was calculated using the formula: % Survival=live cell number [test]/live cell number [control]×100
(§5) The IC50 values were calculated by non-linear regression analysis.
(§6) The compounds were screened against at […] including PANC-1, MDA-MB-231, HCT116 and Caki-1, at approximately 1 μM concentration. The inhibition of cell growth (IC50, μM) of some tetrahydroisoquinolin-2-yl-(quinazolin-4-yl)methanone compounds are shown in Table 2.

HCT116 (colon) = experiment: SRB growth inhibition assay, HCT116; assay type: cell-based, Human; conditions: Homo sapiens, HCT-116, 96 hours incubation, read-out: Inhibition of cell growth (IC50, μM) HCT116
From the text: as §1, §2, §3, §4, §5, §6

OVCAR-3 (ovary) = experiment: SRB growth inhibition assay, OVCAR-3; assay type: cell-based; conditions: Homo sapiens, 96 hours incubation, read-out: Inhibition of cell growth (IC50, μM) Ovcar3
From the text: as §1, §2, §3, §4, §5

Caki-1 (kidney) = experiment: SRB growth inhibition assay, Caki-1; assay type: cell-based, Human; conditions: Homo sapiens, CAKI-1, 96 hours incubation, read-out: Inhibition of cell growth (IC50, μM) Caki-1
From the text: as §1, §2, §3, §4, §5, §6

U251 (brain) = experiment: SRB growth inhibition assay, U251; assay type: cell-based; conditions: Homo sapiens, U-251, 96 hours incubation, read-out: Inhibition of cell growth (IC50, μM) U251
From the text: as §1, §2, §3, §4, §5

PC3 (prostate) = experiment: SRB growth inhibition assay, PC3; assay type: cell-based; conditions: Homo sapiens, 96 hours incubation, read-out: Inhibition of cell growth (IC50, μM) PC-3
From the text: as §1, §2, §3, §4, §5

HepG2 (liver) = experiment: SRB growth inhibition assay, HepG2; assay type: cell-based; conditions: Homo sapiens, 96 hours incubation, read-out: Inhibition of cell growth (IC50, μM) HepG2
From the text: as §1, §2, §3, §4, §5

MDA-MB-231 (breast) = experiment: SRB growth inhibition assay, MDA-MB-231; assay type: cell-based, Human; conditions: Homo sapiens, MDA-MB-231, 96 hours incubation, read-out: Inhibition of cell growth (IC50, μM) MDA-MB-231
From the text: as §1, §2, §3, §4, §5, §6

SK-MEL-28 (melanoma) = experiment: SRB growth inhibition assay, SK-MEL-28; assay type: cell-based; conditions: Homo sapiens, 96 hours incubation, read-out: Inhibition of cell growth (IC50, μM) SK-MEL-28
From the text: as §1, §2, §3, §4, §5

HeLa (cervix) = experiment: SRB growth inhibition assay, HeLa; assay type: cell-based; conditions: Homo sapiens, 96 hours incubation, read-out: Inhibition of cell growth (IC50, μM) HeLa
From the text: as §1, §2, §3, §4, §5

MKN-45 (stomach) = experiment: SRB growth inhibition assay, MKN-45; assay type: cell-based; conditions: Homo sapiens, 96 hours incubation, read-out: Inhibition of cell growth (IC50, μM) MKN-45
From the text: as §1, §2, §3, §4, §5

A549 (lung) = experiment: SRB growth inhibition assay, A549; assay type: cell-based; conditions: Homo sapiens, 96 hours incubation, read-out: Inhibition of cell growth (IC50, μM) A549
From the text: as §1, §2, §3, §4, §5

SMILES	IC50 (PANC-1 (pancreas))	IC50 (HCT116 (colon))	IC50 (OVCAR-3 (ovary))	IC50 (Caki-1 (kidney))	IC50 (U251 (brain))	IC50 (PC3 (prostate))	IC50 (HepG2 (liver))	IC50 (MDA-MB-231 (breast))	IC50 (SK-MEL-28 (melanoma))	IC50 (HeLa (cervix))	IC50 (MKN-45 (stomach))	IC50 (A549 (lung))
COc1ccc2c(c1O)CCN(C(=O)c1nc(-c3ccc(F)cc3F)nc3ccccc13)C2 [Compound 57, 2-[[2-(2,4-difluorophenyl)quinazolin-4-yl]carbonyl]-5-hydroxy-6-methoxy-1,2,3,4-tetrahydroisoquinoline]	0.19 µM	0.22 µM	0.23 µM	0.21 µM	0.17 µM	0.21 µM	0.31 µM	0.17 µM	0.2 µM	–	–	–
COc1ccc(-c2nc(C(=O)N3CCc4c(ccc(OC)c4O)C3)c3ccccc3n2)cc1 [Compound 22, 2-[[2-(4-methoxylphenyl)quinazolin-4-yl]carbonyl]-5-hydroxy-6-methoxy-1,2,3,4-tetrahydroisoquinoline]	0.056 µM	0.086 µM	0.08 µM	0.057 µM	0.069 µM	0.076 µM	0.19 µM	0.052 µM	0.072 µM	0.064 µM	0.055 µM	0.15 µM
COc1ccc2c(c1O)CCN(C(=O)c1nc(-c3ccccc3)nc3ccccc13)C2 [Compound 17, 2-[[2-phenylquinazolin-4-yl]carbonyl]-5-hydroxy-6-methoxy-1,2,3,4-tetrahydroisoquinoline]	0.062 µM	0.081 µM	0.074 µM	0.057 µM	0.067 µM	0.076 µM	0.14 µM	0.066 µM	0.069 µM	0.074 µM	0.063 µM	0.15 µM
COc1ccc2c(c1O)CCN(C(=O)c1nc(-c3ccncn3)nc3ccccc13)C2 [Compound 70, 2-[[2-(4-pyrimidinyl)quinazolin-4-yl]carbonyl]-5-hydroxy-6-methoxy-1,2,3,4-tetrahydroisoquinoline]	0.054 µM	0.068 µM	0.068 µM	0.055 µM	0.064 µM	0.049 µM	0.096 µM	0.045 µM	0.059 µM	0.074 µM	0.058 µM	0.11 µM
COc1ccc2c(c1O)CCN(C(=O)c1nc(-c3cccnc3)nc3ccccc13)C2 [Compound 84, 2-[[2-(3-pyridinyl)quinazolin-4-yl]carbonyl]-5-hydroxy-6-methoxy-1,2,3,4-tetrahydroisoquinoline]	0.15 µM	0.15 µM	0.14 µM	0.093 µM	0.11 µM	0.15 µM	0.2 µM	0.13 µM	0.13 µM	0.15 µM	0.071 µM	0.24 µM
COc1ccc2c(c1)CCN(C(=O)c1nc(-c3ccc(F)cc3)nc3ccccc13)C2 [Compound 7, 2-[[2-(4-fluorophenyl)quinazolin-4-yl]carbonyl]-6-methoxy-1,2,3,4-tetrahydroisoquinoline]	0.53 µM	1.1 µM	0.16 µM	0.61 µM	0.64 µM	–	0.72 µM	0.9 µM	0.36 µM	0.24 µM	0.19 µM	–
COc1ccc2c(c1O)CCN(C(=O)c1nc(-c3ccc(C(F)(F)F)cc3)nc3ccccc13)C2 [Compound 37, 2-[[2-(4-(trifluoromethyl)phenyl)quinazolin-4-yl]carbonyl]-5-hydroxy-6-methoxy-1,2,3,4-tetrahydroisoquinoline]	0.43 µM	0.55 µM	–	0.36 µM	–	–	–	0.42 µM	–	–	–	–
COc1ccc2c(c1OC)CCN(C(=O)c1nc(-c3ccncn3)nc3ccccc13)C2 [Compound 72, 2-[[2-(4-pyrimidinyl)quinazolin-4-yl]carbonyl]-5,6-dimethoxy-1,2,3,4-tetrahydroisoquinoline]	0.49 µM	0.55 µM	–	0.39 µM	–	–	–	0.46 µM	–	–	–	–
Cc1ccc2c(c1O)CCN(C(=O)c1nc(-c3ccc(F)cc3F)nc3ccccc13)C2 [Compound 61, 2-[[2-(2,4-difluorophenyl)quinazolin-4-yl]carbonyl]-5-hydroxy-6-methyl-1,2,3,4-tetrahydroisoquinoline]	2.31 µM	2.76 µM	–	2.47 µM	–	–	–	1.84 µM	–	–	–	–
COc1ccc(-c2nc(C(=O)N3CCc4c(ccc(C)c4O)C3)c3ccccc3n2)cc1 [Compound 26, 2-[[2-(4-methoxylphenyl)quinazolin-4-yl]carbonyl]-5-hydroxy-6-methyl-1,2,3,4-tetrahydroisoquinoline]	0.18 µM	0.22 µM	–	0.16 µM	–	–	–	0.19 µM	–	–	–	–
COc1ccc2c(c1O)CCN(C(=O)c1nc(-c3ccc(F)cc3)nc3ccc(F)cc13)C2 [Compound 97, 2-[[6-fluoro-2-(4-fluorophenyl)quinazolin-4-yl]carbonyl]-5-hydroxy-6-methoxy-1,2,3,4-tetrahydroisoquinoline]	0.13 µM	0.17 µM	0.073 µM	0.11 µM	0.13 µM	–	0.18 µM	0.16 µM	0.11 µM	0.16 µM	0.087 µM	–
Cc1ccc2c(c1O)CCN(C(=O)c1nc(-c3ccc(F)cc3)nc3ccccc13)C2 [Compound 5, 2-[[2-(4-fluorophenyl)quinazolin-4-yl]carbonyl]-5-hydroxy-6-methyl-1,2,3,4-tetrahydroisoquinoline]	0.4 µM	0.47 µM	–	0.36 µM	–	–	–	0.38 µM	–	–	–	–
COc1ccc2c(c1O)CCN(C(=O)c1nc(-c3cccc(C(F)(F)F)c3)nc3ccccc13)C2 [Compound 52, 2-[[2-(3-(trifluoromethyl)phenyl)quinazolin-4-yl]carbonyl]-5-hydroxy-6-methoxy-1,2,3,4-tetrahydroisoquinoline]	2.51 µM	2.67 µM	–	1.91 µM	–	–	–	1.62 µM	–	–	–	–
Cc1ccc2c(c1O)CCN(C(=O)c1nc(-c3ccccc3)nc3ccccc13)C2 [Compound 21, 2-[[2-phenylquinazolin-4-yl]carbonyl]-5-hydroxy-6-methyl-1,2,3,4-tetrahydroisoquinoline]	0.22 µM	0.34 µM	–	0.23 µM	–	–	–	0.27 µM	–	–	–	–
